Patent EP0612845A2 (priority 1993, dated 1994)
Where two headings read alike, the source gives them in different places.

Legend:
[1] = target: rat brain opioid receptor; experiment: Competition with [125I]b-endorphin for binding to rat brain membranes (analytical microtiter plate assay)
Experimental: Whole male rat brains frozen in liquid N₂ are purchased from Pel-Freez (Rogers, AR). All procedures for membrane preparation are carried out at a temperature of 2-6 °C. The brains are homogenized in a Waring blender in a buffer containing 1 mM Na-bicarbonate (pH 7.2), 1 mM EDTA, 1 mM EGTA (all chemicals from Sigma Chemical, St. Louis, MO) and 0.7% (vol./vol.) of the 100X 4Pase protease inhibitor mixture (see "Protease Inhibitors" below). The ratio of tissue/homogenization medium is from 25-35 gm of brain/500 ml. The blender is controlled through a variable output rheostat (Staco Energy Products, Dayton, OH; type 3PN1010) at a setting of 40. The homogenate is centrifuged for 10 minutes at 1,000 x g pellet is rehomeginized in 500 ml of homogenization medium and recentrifuged for 10 minutes at 1,000 x g. The 1,000 x g pellet is discarded. The 1,000 x g supernatants are combined and centrifuged for 30 minutes at 20,000 x g. The 20,000 x g membrane pellet is washed by being resuspended with a Dounce homogenizer in 500 ml of homogenization medium supplemented with 10 mM EDTA (pH readjusted to 7.4) and then washed twice by being resuspended in 25 mM Tris buffer (Sigma Chemical Co.; pH 7.4) and centrifuged for 25 minutes at 20,000 x g. The final membrane pellet is resuspended in 25 mM inhibitor mixture to a protein concentration of 4-12 mg/ml. The resuspended membranes are aliquoted, frozen on dry ice and stored at -90 °C.
Binding of [¹²⁵I]-labelled b-endorphin, b-endorphin and other b-endorphin analogs and opioids is done in a binding buffer containing 50 mM HEPES (Sigma; pH 7.4; pHed with KOH), 0.1% (w/v) bovine serum albumin (Miles Laboratories, Elkhart, IN) and protease inhibitors as specified below for specific applications. All binding incubations are carried out at room temperature (20-23 °C). • A. Analytical - This assay is carried out in 96 well microtiter plates (Immulon II with snap-off wells; Dynatech, Chantille, VA). To carry out the assay, the following components are added to the wells in the order and volumes shown: (1) […] of nonlabelled ligand. For this purpose, ligands (for example b-endorphin or biotinylated b-endorphin) are made up at 40X the desired final concentration in the 40X P/B/Pz protease inhibitor mixture (Experimental Procedures. 4.C.) (2) […] of [¹²⁵I]b-endorphin in binding buffer + 1/100 volume of the 100X 4Pase protease inhibitor mixture; mix briefly on a microtiter plate shaker (Dynatech Micro-Shaker II, Dynatech, Chantilly, VA). (3) […] of rat brain membrane diluted in binding buffer + […] volume of 100X 4Pase to deliver […] of membrane protein per well. The plates are then covered with Linbro Mylar plate sealers (Flow Labs, McLean, VA) and incubated for 1 hour at room temperature (20-23 °C). The membranes are pelleted by centrifugation at 2,000 x g, the supernatants (containing nonbound ligands) are decanted and the pellets are washed by the addition of […] of ice cold binding buffer, brief shaking and recentrifugation. CPM of [¹²⁵I] in the final membrane pellets is then counted in a gamma counter (LKB Gammamaster 1277; 80% efficiency). • B. Preparative - Rat brain membranes are diluted to a concentration of 0.5 mg of membrane protein/ml in binding buffer containing 1/400 (vol./vol.) of the 400X P/B/Bz protease inhibitor mixture (see Section 4). […] In this case, the blocking ligand is added from 5-15 minutes prior to the addition of biotinyl-b-endorphin. In some cases only the blocking ligand is added. […]

[2] = target: T1, m-opiate receptor (mOR) cDNA RC8-1 expressed in COS cells (Rattus norvegicus, UniProt P33535); assay type: binding
T1 construct: expressed in transfected cells; host or cells: COS cells, transient electroporation with pcDNA1RC8-1; membranes
T1 sequence (P33535 whole entry): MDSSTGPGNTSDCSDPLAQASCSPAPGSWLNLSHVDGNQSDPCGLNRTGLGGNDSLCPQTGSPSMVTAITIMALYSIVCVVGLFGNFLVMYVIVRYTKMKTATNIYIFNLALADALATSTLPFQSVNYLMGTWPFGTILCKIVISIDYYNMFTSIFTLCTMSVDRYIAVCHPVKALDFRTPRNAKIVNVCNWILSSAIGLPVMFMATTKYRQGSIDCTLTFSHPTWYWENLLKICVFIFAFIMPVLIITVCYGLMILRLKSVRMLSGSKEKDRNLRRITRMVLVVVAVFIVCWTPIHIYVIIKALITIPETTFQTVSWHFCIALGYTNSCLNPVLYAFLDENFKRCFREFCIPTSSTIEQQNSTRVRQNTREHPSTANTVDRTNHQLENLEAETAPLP

[3] = target: T1, m-opiate receptor (mOR) cDNA RC8-1 expressed in COS cells; assay type: binding; remark: listed apart in the source
[4] = system: [¹²⁵I]b-Endorphin: Opioid Receptor Complex; experiment: Dissociation of the solubilized R:L complex, measured by binding to WGA-agarose; assay type: biochemical, rat
[5] = competition with [¹²⁵I]b-endorphin, rat brain membranes, read-out: IC₅₀s for reduction of radioligand binding by competition with cold ligand
[6] = reanalysis, F1 fraction heated at 50°C for 5 min, read-out: IC50 for binding to receptors in rat brain membranes by competition vs. [¹²⁵I]b-endorphin (reanalysis)

Molecule: [biotinyl-Lys³²]b-endorphin [biotinyl-b-endorphin (F2)]
- IC50 [1, 5]: 5 nM

Molecule: CCC12CCN(CC3(O)CC3)C(Cc3ccc(O)cc31)C2(C)C (centres unmarked) [bromazocino]
- potency in displacing binding of [³H]DAMGO [2]: high potency

Molecule: [biotinyl-Lys³²]b-endorphin [biotinyl-b-endorphin]
- IC50 [1, 6]: 1.8 nM

Molecule: NaCl
- effect of addition to incubations on [³H]DAMGO binding [3]: reduced

Molecule: ethylketocyclazocino
- potency in displacing binding of [³H]DAMGO [2]: high potency

Molecule: [biotinyl-Lys³²]b-endorphin [biotinyl-b-endorphin (F1)]
- IC50 [1, 5]: 1 nM

Molecule: b-endorphin
- IC50 [1, 5]: 1 nM
- IC50 [1, 6]: 1.2 nM

Molecule: CN1CC[C@]23c4c5ccc(O)c4O[C@H]2[C@@H](O)C=C[C@H]3[C@H]1C5 [Morphine]
- potency in displacing binding of [³H]DAMGO [2]: high potency

Molecule: CN1CC[C@]23CCCC[C@H]2[C@H]1Cc1ccc(O)cc13 [levorphan]
- potency in displacing [³H]DAMGO binding relative to the pharmacologically inactive isomer [2]: substantially greater potency

Molecule: Nc1nc2c(ncn2[C@@H]2O[C@H](COP(=O)(O)OP(=O)(O)OP(O)(O)=S)[C@@H](O)[C@H]2O)c(=O)[nH]1 [GTP-g-S]
- dissociation of receptor from ligand ([4]; GTP analog alone, without NaCl): about 30%
- % Decrease in R:L Complex ([4]; Table 1, 100 mM GTP-g-S, 10 minutes at room temperature): 34%
- % Decrease in R:L Complex ([4]; Table 2, 100 mM GTP-g-S + 25 mM NaCl): 77%
- % Decrease in R:L Complex ([4]; Table 2, 100 mM GTP-g-S + 50 mM NaCl): 90%
- % Decrease in R:L Complex ([4]; Table 2, 100 mM GTP-g-S + 100 mM NaCl): 93%
- % Decrease in R:L Complex ([4]; Table 2, 100 mM GTP-g-S alone): 24%

Molecule: Nc1nc2c(ncn2[C@@H]2O[C@H](COP(=O)(O)OP(=O)(O)OP(=O)(O)O)[C@@H](O)[C@H]2O)c(=O)[nH]1 [GTP]
- effect of addition to incubations on [³H]DAMGO binding [3]: reduced
